Source: patent publication US8765696B2, “Steroid compound” (Mikasa Seiyaku Co., Ltd., priority 2009, dated 2014)

Experiments:
[1] = test system: croton oil-induced ear edema; experiment: Test for croton oil-induced ear edema; type: in vivo; conditions: rat right auricle; for Edema suppression rate of 6 hours after administration of inflammatory agent (%): 6 hours after croton oil; for Edema suppression rate of 24 hours after administration of inflammatory agent (%): 24 hours after croton oil
Procedure: Croton oil ear edema test, which is a representative model for dermatitis, was used to study the pharmacological effect of compounds of the present invention.
Five individuals/group of rats of 5 weeks old (body weight, 128 g to 169 g) were used. One day before the test, the thickness of the right ear was measured under ether anesthesia using a dial thickness gauge, to obtain the Pre value. On the day of the test, 20 mg each of the ointments to be tested, which had been prepared to have various concentrations in white vaseline, was applied to the right auricle (both sides) of each rat, and a collar was then placed around the neck of the rat to prevent contacting/scratching and removal of the drug. Two hours later, the ointment was wiped off under ether anesthesia using absorbent cotton, and 0.1 mL of 5% croton oil (croton oil:ether:pyridine:distilled water=1:14:4:1) solution was applied dropwise to the both sides of the auricle while drying the solution with a drier (air blow), to induce ear edema. Six and 24 hours after the induction of the edema, the thickness of the right auricle was measured under ether anesthesia, and the edema rate and the edema suppression rate were calculated according to the equations below, which suppression rate is shown in Table 1.

[2] = test system: croton oil-induced granuloma; experiment: Test for croton oil-induced granuloma (air pouch exudate and thymus weight); type: in vivo, rat; conditions: male Wistar rats, 7 days, vs control group
From the text: Using the croton oil granuloma test, which is a test method with which the local anti-inflammatory action and the systemic side effect can be evaluated at the same time, the pharmacological effect and the systemic side effect of the compounds of the present invention were studied.
Five individuals/group of male Wistar rats having body weights of 180 to 225 g were used, and hair on the back of these rats was shaved with a clipper under ether anesthesia, followed by preparing an air pouch by subcutaneous injection of 20 mL of air at the back. On the next day, 1 mL of cottonseed oil containing 1% croton oil was administered to the pouch. Each test drug was suspended in the croton oil-containing cottonseed oil before administration. Seven days later, blood was collected from abdominal aorta under ether anesthesia, and exudate in the pouch was collected and its fluid amount was measured. Further, the thymus was removed, and its weight was measured. The weight of the exudate and the weight of the thymus are shown in Table 2 as the suppression rate and the atrophy rate (%) with respect to those of the control group.

| Compound | Edema suppression rate of 6 hours after administration of inflammatory agent (%) ([1]; ointment concentration 0.001%) | Edema suppression rate of 24 hours after administration of inflammatory agent (%) ([1]; ointment concentration 0.001%) | Edema suppression rate of 6 hours after administration of inflammatory agent (%) ([1]; ointment concentration 0.01%) | Edema suppression rate of 24 hours after administration of inflammatory agent (%) ([1]; ointment concentration 0.01%) | Edema suppression rate of 6 hours after administration of inflammatory agent (%) ([1]; ointment concentration 0.1%) | Edema suppression rate of 24 hours after administration of inflammatory agent (%) ([1]; ointment concentration 0.1%) | Rate of exudates suppression (pharmacological effects) ([2]; dose 0.001 mg/rat into pouch) | Rate of thymus atrophy (systemic side effects) ([2]; dose 0.001 mg/rat into pouch) | Rate of exudates suppression (pharmacological effects) ([2]; dose 0.01 mg/rat into pouch) | Rate of thymus atrophy (systemic side effects) ([2]; dose 0.01 mg/rat into pouch) | Rate of exudates suppression (pharmacological effects) ([2]; dose 0.1 mg/rat into pouch) | Rate of thymus atrophy (systemic side effects) ([2]; dose 0.1 mg/rat into pouch) | Rate of exudates suppression (pharmacological effects) ([2]; dose 1 mg/rat into pouch) | Rate of thymus atrophy (systemic side effects) ([2]; dose 1 mg/rat into pouch) |
| --- | --- | --- | --- | --- | --- | --- | --- | --- | --- | --- | --- | --- | --- | --- |
| CC(C)C(=O)OCC1OC(OCC(=O)C23OC(C4CCCCC4)OC2CC2C4CCC5=CC(=O)C=CC5(C)C4C(O)CC23C)C(OC(=O)C(C)C)C(OC(=O)C(C)C)C1OC(=O)C(C)C (stereo not shown) [Compound 6] | 27.5% | 30.5% | 53.1% | 45.8% | 53.1% | 55.1% | 0.0% | 0.0% | 12.0% | 0.0% | 31.2% | 0.0% | 71.9% | 0.0% |
| CC(=O)NC1C(OCC(=O)C23OC(C4CCCCC4)OC2CC2C4CCC5=CC(=O)C=CC5(C)C4C(O)CC23C)OC(COC(C)=O)C(OC(C)=O)C1OC(C)=O (stereo not shown) [Compound 12] | 29.9% | 36.6% | 16.7% | 29.6% | 12.4% | 9.1% | 3.6% | 0.0% | 0.0% | 5.8% | 0.0% | 17.7% | 76.5% | 8.0% |
| C[C@]12C=CC(=O)C=C1CC[C@@H]1[C@@H]2[C@@H](O)C[C@@]2(C)[C@H]1C[C@H]1O[C@@H](C3CCCCC3)O[C@]12C(=O)CO [desCIC, des-ciclesonide, reference compound] |  |  |  |  |  |  | 62.0% | 0.0% | 74.1% | 11.7% | 92.7% | 22.4% | 94.1% | 86.4% |
| CCCC1O[C@@H]2C[C@H]3[C@@H]4CCC5=CC(=O)C=C[C@]5(C)[C@H]4[C@@H](O)C[C@]3(C)[C@]2(C(=O)CO)O1 (stereo partly shown) [Budesonide, budesonide, reference compound] | 11.8% | 7.6% | 32.3% | 33.5% | 48.1% | 45.1% | 10.8% | 7.3% | 66.9% | 17.7% | 91.6% | 74.5% | 94.3% | 87.5% |
| CCC(=O)OCC1OC(OCC(=O)C23OC(C4CCCCC4)OC2CC2C4CCC5=CC(=O)C=CC5(C)C4C(O)CC23C)C(OC(=O)CC)C(OC(=O)CC)C1OC(=O)CC (stereo not shown) [Compound 4] | 30.8% | 33.8% | 46.3% | 70.2% | 54.4% | 71.7% | 17.9% | 0.0% | 44.5% | 0.0% | 87.0% | 0.0% | 94.5% | 0.0% |
| CCCC1O[C@@H]2C[C@H]3[C@@H]4CCC5=CC(=O)C=C[C@]5(C)[C@H]4[C@@H](O)C[C@]3(C)[C@]2(C(=O)CO)O1 (stereo partly drawn) [Budesonide(R), reference compound] |  |  |  |  |  |  | 7.6% | 15.6% | 44.9% | 25.8% | 88.4% | 74.5% | 93.0% | 90.2% |
| CC(=O)OC1C(C)OC(OCC(=O)C23OC(C4CCCCC4)OC2CC2C4CCC5=CC(=O)C=CC5(C)C4C(O)CC23C)C(OC(C)=O)C1OC(C)=O (stereo not shown) [Compound 10] | 42.4% | 45.8% | 55.9% | 33.2% | 38.9% | 39.9% | 4.6% | 0.0% | 0.0% | 0.0% | 4.8% | 0.0% | 5.3% | 0.0% |
| CC12C=CC(=O)C=C1CCC1C2C(O)CC2(C)C1CC1OC(C3CCCCC3)OC12C(=O)COC1OC(CO)C(O)C(O)C1O (stereo not shown) [Compound 2] | 13.5% | 12.5% | 36.8% | 38.2% | 50.2% | 49.5% |  |  |  |  |  |  |  |  |
| CC(=O)NC1C(OCC(=O)C23OC(C4CCCCC4)OC2CC2C4CCC5=CC(=O)C=CC5(C)C4C(O)CC23C)OC(COC(C)=O)C(OC(C)=O)C1OC(C)=O (stereo not shown) [Compound 11] | 24.5% | 39.4% | 19.0% | 26.5% | 33.6% | 48.0% | 13.1% | 3.9% | 21.2% | 7.9% | 66.0% | 10.8% | 93.4% | 16.0% |
